From the supplement of paper PMC12463676, “Small-molecule dissolution of stress granules by redox modulation benefits ALS models” (Nature Chemical Biology, 2025)

What was measured:
[1] = compound: NC(=O)CCCCC1CCSS1 [lipoamide]; test: thermal stability z-score vs DMSO; higher = more thermally stabilized by treatment; conditions: HeLa, lipoamide concentration 100 µM
Protocol: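 Cellular thermal proteome profiling in HeLa cells. Cells were treated with 100 µM lipoamide for 1 h, with or without 1 mM arsenate for a further 1 h, then heated to ten temperatures (37-66.3 °C), and soluble protein was quantified by TMT mass spectrometry relative to 0.1% DMSO controls. The thermal stability score (sum of log2 fold changes minus the abundance score) was transformed to a z-score; mean of n = 3 experiments.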

[2] = compound: O=[As]([O-])(O)O.[K+] [potassium arsenate]; test: as above; conditions: HeLa; arsenate concentration 1 mM
Protocol: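 Cellular thermal proteome profiling in HeLa cells treated with 1 mM arsenate for 1 h (DMSO pretreatment), heated to ten temperatures (37-66.3 °C). Soluble protein was quantified by TMT mass spectrometry relative to DMSO controls; the thermal stability score was transformed to a z-score; mean of n = 3 experiments.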

[3] = arsenate co-treatment: 1 mM arsenate 1 h
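Further: each temperature applied for 3 min, abundance score taken as mean log2 fold change at the two lowest temperatures, z-score obtained by mean subtraction and division by SD.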

UniProt Q9Y619, sequence (Q9Y619 whole entry): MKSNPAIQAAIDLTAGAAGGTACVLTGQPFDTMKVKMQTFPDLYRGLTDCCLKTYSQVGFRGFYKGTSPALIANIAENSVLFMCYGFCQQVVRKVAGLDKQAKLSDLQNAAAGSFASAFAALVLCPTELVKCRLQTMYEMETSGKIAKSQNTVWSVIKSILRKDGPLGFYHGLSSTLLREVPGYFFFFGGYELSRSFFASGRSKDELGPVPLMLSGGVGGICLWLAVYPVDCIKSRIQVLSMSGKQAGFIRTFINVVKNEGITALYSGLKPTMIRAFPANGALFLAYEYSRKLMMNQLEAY
UniProt P17706, sequence (P17706 whole entry): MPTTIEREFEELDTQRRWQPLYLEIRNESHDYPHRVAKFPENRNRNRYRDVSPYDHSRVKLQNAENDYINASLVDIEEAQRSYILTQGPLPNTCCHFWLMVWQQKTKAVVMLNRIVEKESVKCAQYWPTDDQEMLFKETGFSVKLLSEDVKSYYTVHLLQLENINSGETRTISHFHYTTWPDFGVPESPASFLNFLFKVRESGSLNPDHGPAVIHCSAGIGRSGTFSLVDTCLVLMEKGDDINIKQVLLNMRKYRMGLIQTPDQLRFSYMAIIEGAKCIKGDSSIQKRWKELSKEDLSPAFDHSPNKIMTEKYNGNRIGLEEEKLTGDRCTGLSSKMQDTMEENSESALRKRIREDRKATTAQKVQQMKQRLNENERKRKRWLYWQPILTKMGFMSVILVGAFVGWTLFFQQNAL
UniProt P11388, sequence (P11388 whole entry): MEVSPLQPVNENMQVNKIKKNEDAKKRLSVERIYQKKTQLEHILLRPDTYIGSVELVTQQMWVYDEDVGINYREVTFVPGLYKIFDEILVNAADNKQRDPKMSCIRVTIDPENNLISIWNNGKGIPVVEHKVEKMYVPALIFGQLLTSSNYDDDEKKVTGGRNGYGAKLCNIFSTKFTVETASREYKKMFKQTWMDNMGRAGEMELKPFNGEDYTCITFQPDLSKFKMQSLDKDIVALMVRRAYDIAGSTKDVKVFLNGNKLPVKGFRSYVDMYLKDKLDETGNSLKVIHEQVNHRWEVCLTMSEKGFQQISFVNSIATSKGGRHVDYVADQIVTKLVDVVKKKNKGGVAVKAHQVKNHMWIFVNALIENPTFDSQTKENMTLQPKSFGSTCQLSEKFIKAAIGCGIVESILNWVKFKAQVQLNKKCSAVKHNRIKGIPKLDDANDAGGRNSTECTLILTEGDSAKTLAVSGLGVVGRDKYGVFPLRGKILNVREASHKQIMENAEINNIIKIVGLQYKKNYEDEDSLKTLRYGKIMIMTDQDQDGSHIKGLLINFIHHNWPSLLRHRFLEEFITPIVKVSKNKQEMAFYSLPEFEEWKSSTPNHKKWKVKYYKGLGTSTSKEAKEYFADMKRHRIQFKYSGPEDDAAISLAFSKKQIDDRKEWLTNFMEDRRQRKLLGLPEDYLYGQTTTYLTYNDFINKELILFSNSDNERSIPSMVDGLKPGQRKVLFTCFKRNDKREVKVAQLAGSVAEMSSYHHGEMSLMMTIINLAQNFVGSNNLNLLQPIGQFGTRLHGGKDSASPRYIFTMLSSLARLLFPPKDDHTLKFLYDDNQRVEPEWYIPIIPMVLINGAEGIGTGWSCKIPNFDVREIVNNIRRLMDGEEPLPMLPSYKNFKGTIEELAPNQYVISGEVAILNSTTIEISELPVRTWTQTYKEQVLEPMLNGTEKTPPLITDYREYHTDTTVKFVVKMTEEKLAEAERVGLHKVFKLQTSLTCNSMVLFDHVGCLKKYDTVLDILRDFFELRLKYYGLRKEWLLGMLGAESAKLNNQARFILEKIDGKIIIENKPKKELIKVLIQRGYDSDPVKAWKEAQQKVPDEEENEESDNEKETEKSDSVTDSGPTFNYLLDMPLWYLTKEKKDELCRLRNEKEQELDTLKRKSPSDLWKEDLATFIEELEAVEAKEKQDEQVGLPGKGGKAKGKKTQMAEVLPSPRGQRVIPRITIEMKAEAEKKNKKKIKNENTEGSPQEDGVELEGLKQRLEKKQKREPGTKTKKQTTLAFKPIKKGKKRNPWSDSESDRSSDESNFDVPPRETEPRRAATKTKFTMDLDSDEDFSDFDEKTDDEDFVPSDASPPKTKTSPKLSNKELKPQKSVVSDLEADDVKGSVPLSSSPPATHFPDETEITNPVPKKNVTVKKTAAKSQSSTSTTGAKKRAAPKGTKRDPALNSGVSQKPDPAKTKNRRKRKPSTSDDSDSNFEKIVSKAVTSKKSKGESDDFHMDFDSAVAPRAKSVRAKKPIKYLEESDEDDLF
UniProt Q06481, sequence (Q06481 whole entry): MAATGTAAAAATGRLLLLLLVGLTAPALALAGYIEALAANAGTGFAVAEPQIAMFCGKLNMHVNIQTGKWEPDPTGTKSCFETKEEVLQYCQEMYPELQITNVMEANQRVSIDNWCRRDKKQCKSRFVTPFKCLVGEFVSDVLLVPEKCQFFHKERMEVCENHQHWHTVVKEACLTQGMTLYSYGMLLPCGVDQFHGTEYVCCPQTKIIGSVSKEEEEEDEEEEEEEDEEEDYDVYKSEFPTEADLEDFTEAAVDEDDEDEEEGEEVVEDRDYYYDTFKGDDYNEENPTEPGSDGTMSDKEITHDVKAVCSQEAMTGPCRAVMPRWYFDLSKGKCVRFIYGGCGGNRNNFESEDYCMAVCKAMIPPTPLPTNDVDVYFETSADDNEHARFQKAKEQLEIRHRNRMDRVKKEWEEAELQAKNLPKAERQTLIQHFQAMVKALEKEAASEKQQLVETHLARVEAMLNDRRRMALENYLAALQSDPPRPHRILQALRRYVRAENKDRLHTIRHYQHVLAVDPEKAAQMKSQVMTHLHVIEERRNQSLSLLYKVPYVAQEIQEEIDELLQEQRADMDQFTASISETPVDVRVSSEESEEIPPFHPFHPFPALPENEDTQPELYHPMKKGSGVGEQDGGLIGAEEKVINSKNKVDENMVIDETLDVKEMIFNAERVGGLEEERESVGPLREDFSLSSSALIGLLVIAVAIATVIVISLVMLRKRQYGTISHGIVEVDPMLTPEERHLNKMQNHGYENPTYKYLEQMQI
UniProt Q53H82, sequence (Q53H82 whole entry): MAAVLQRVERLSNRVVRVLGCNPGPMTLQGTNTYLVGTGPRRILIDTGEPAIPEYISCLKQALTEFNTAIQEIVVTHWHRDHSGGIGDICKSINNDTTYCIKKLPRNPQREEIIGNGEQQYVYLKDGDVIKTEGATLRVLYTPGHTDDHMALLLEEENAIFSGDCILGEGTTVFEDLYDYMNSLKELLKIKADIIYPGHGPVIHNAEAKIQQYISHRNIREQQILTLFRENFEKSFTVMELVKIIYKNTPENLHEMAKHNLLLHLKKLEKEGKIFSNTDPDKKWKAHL
UniProt Q13867, sequence (Q13867 whole entry): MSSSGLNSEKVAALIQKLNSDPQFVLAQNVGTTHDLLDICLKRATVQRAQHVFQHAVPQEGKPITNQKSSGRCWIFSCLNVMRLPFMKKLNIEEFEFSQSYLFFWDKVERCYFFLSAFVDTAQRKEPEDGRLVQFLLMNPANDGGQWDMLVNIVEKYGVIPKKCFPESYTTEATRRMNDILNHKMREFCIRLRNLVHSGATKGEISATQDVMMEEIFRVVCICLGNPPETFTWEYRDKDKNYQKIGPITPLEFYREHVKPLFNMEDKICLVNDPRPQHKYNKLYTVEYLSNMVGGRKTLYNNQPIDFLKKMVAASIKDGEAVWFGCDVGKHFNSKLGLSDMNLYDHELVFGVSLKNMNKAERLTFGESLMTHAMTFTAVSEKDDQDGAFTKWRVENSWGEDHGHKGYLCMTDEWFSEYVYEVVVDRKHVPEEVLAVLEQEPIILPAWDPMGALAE
UniProt Q9UEU0, sequence (Q9UEU0 whole entry): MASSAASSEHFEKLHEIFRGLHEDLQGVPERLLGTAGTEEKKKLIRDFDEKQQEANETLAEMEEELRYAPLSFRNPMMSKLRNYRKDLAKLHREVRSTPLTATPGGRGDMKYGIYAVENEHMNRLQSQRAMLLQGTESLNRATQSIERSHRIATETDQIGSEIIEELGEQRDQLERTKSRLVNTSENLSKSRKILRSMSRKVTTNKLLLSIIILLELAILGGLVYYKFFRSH
UniProt P11169, sequence (P11169 whole entry): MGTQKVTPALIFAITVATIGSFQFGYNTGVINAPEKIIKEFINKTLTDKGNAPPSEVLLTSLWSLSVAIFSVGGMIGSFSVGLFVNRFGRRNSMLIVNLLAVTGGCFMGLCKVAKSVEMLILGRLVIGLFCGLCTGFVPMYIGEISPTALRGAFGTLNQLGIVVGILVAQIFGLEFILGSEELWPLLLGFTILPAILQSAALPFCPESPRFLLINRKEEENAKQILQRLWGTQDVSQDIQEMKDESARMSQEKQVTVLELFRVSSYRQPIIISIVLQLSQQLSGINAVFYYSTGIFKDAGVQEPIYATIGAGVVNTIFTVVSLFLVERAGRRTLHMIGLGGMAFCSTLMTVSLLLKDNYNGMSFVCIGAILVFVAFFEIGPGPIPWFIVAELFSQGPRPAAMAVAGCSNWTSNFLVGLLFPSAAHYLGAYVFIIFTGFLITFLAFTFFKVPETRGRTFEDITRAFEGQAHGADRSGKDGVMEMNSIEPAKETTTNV
UniProt Q9Y6M5, sequence (Q9Y6M5 whole entry): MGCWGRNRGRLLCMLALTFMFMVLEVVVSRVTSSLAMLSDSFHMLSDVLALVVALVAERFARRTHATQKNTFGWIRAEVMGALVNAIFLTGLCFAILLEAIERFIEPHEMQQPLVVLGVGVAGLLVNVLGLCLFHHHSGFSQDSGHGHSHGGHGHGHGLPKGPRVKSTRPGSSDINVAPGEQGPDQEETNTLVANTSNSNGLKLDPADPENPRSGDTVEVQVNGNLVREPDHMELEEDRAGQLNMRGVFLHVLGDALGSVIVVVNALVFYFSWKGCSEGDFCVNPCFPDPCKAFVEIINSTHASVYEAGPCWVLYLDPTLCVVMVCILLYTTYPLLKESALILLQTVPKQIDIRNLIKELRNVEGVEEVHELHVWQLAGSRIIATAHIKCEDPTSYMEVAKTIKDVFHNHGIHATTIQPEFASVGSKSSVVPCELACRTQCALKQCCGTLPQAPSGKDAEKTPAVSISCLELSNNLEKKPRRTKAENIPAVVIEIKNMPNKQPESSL

Target | thermal stability z-score [1, 3] | thermal stability z-score ([1]; arsenate co-treatment: none) | thermal stability z-score [2]
DSC2 (UniProt Q02487) | 2.38 | 5.06 | 1.77
TRAF6 (UniProt Q9Y4K3) | -0.0771 | -0.0851 | -0.00689
RAB27B (UniProt O00194) | 0.463 | 0.0912 | 0.58
NCOR1 (UniProt O75376) | -0.0471 | -0.0243 | -0.0899
MRPS14 (UniProt O60783) | -0.722 | -0.574 | -0.644
MCM4 (UniProt P33991) | -0.472 | -0.0478 | -0.472
OSBPL2 (UniProt Q9H1P3) | -0.0428 | 0.0817 | -0.0657
TTC39C (UniProt Q8N584) | 0.0518 | 0.22 | 0.0855
PAPOLA (UniProt P51003) | -0.22 | -0.103 | -0.119
ATP5D (UniProt P30049) | 1.09 | 0.762 | 0.463
ABCA2 (UniProt Q9BZC7) | 0.0542 | 0.0722 | -0.0916
DBN1 (UniProt Q16643) | 0.625 | -0.407 | -0.684
LAMTOR1 (UniProt Q6IAA8) | 1.14 | 0.655 | 0.827
KBTBD4 (UniProt Q9NVX7) | 0.389 | -0.408 | 0.259
RPS19 (UniProt P39019) | 0.104 | 0.15 | -1.03
LACTB2 (UniProt Q53H82) | -0.112 | -0.0753 | -0.335
APLP2 (UniProt Q06481) | -2.13 | -1.76 | -0.251
ETF1 (UniProt P62495) | 0.635 | 0.513 | -0.148
OPA1 (UniProt O60313) | -0.697 | -0.456 | 0.749
BLMH (UniProt Q13867) | 0.51 | 0.365 | 0.0746
CCDC93 (UniProt Q567U6) | -0.728 | -0.078 | 0.0272
APPBP2 (UniProt Q92624) | -0.18 | 0.0712 | -0.115
TOP2A (UniProt P11388) | -0.141 | 0.0459 | -0.293
RAB3GAP2 (UniProt Q9H2M9) | -0.717 | -0.266 | 0.64
DAG1 (UniProt Q14118) | -0.341 | -0.236 | 0.184
SLC25A15 (UniProt Q9Y619) | 0.309 | 0.0332 | 0.22
ATP6V0D1 (UniProt P61421) | -0.621 | -0.115 | -0.134
FBXO9 (UniProt Q9UK97) | -0.495 | -1.62 | -0.61

Target | thermal stability z-score [1, 3] | thermal stability z-score ([1]; arsenate co-treatment: none) | thermal stability z-score [2]
YTHDF1 (UniProt Q9BYJ9) | 0.00152 | -0.0393 | -0.193
MCUR1 (UniProt Q96AQ8) | 0.853 | 1.15 | -0.0449
PAF1 (UniProt Q8N7H5) | 0.0739 | -0.631 | -0.714
APOL2 (UniProt Q9BQE5) | -0.399 | 0.15 | 0.589
PLXNA1 (UniProt Q9UIW2) | 0.316 | -0.385 | -0.00413
JUNB (UniProt P17275) | 0.208 | 0.791 | -1.55
CUL3 (UniProt Q13618) | -0.1 | -0.422 | 0.158
PARP1 (UniProt P09874) | -0.643 | 0.7 | -2.03
VAT1 (UniProt Q99536) | 0.819 | 0.762 | 1.37
ERLEC1 (UniProt Q96DZ1) | -2.84 | -2.07 | 0.593
TNIP1 (UniProt Q15025) | -0.261 | -0.828 | -0.0487
VTI1B (UniProt Q9UEU0) | -0.0224 | -0.376 | -0.184
SLC2A3 (UniProt P11169) | 0.481 | 0.126 | -0.293
POLA1 (UniProt P09884) | -0.387 | 0.167 | -0.306
SLC30A1 (UniProt Q9Y6M5) | 0.17 | 0.0172 | -0.906
CRELD2 (UniProt Q6UXH1) | -6.65 | -6.33 | -0.0409
SYNJ1 (UniProt O43426) | 0.305 | -0.14 | -0.277
CCDC22 (UniProt O60826) | -0.152 | -0.59 | 0.0749
PTPN2 (UniProt P17706) | 0.0491 | 0.308 | 0.95
CANX (UniProt P27824) | -3.78 | -3.12 | 0.851
RPS18 (UniProt P62269) | 0.389 | 0.214 | -0.81
KIAA2013 (UniProt Q8IYS2) | 1.03 | 1.5 | -1.04
ALG13 (UniProt Q9NP73) | 0.336 | 0.571 | -0.739
CRTC1 (UniProt Q6UUV9) | -0.063 | -0.202 | -0.151
MARK1 (UniProt Q9P0L2) | -0.126 | -0.153 | 0.249
MIF (UniProt P14174) | 0.245 | -0.0795 | -0.0642
ATPAF2 (UniProt Q8N5M1) | -0.263 | -0.0435 | -0.318
